Patent publication US7968551B2, “Chromenoneindoles” (Merck Patent GmbH, priority 2003, dated 2011)
One block for each compound: values may come before it.

What was measured:
cortical serotonin level = assay: Microdialysis: effect on the cortical serotonin level in vivo; details: rats
Text: In order to determine the effect of the substances on the cortical serotonin level in rats in vivo, a microdialysis probe with a semipermeable membrane was implanted into the brain tissue and perfused with a solution matched to the composition of cerebrospinal fluid (see in this respect, for example, Di Chiara, Trends Pharmacol. Sci. 11, 117-121, 1990). The molecules of the extracellular space, such as, for example, also of the neurotransmitter serotonin, diffuse via this membrane into the interior of the probe in accordance with their concentration gradient. From there, they are transported with the perfusion stream to a collecting vessel. The serotonin concentration in the dialysate obtained in this way is subsequently determined by means of high-sensitivity analytical methods. The fractions obtained at regular intervals (of, for example, 15-20 minutes) thus reflect the concentration changes of the transmitter in question in the brain tissue over a period of several hours. The concentration of the serotonin in the dialysate is firstly measured without any influence. The substance to be tested is then applied, and the serotonin concentrations before and after administration of the substances are compared.

[1] = Absolute bioavailability from AUC after po and iv administration; assay type: in vivo; details: rat; Wistar rats, male; iv 0.2 mg/kg, po 0.5 mg/kg; plasma by LC/MS/MS
Method: The bioavailability was determined by a standard method described in many textbooks of pharmacokinetics with the aid of the AUC (area under the concentration/time curves) measured after po and iv administration. For the determination of the absolute bioavailability, the plasma concentration curve of the said substances was determined after intravenous (iv) and oral (po) administration to Wistar rats (male; N=3 animals/administration). The following experiment design was selected: • Administration method: iv and po • Dose: iv−0.2 mg/kg; po−0.5 mg/kg • Time of blood sampling for the determination of the plasma concentrations: • iv: 0.1, 0.5, 1, 2, 4, 6 and 24 h • po: 0.25, 0.5, 1, 2, 4, 6 and 24 h
The plasma concentrations were determined with the aid of LC/MS/MS.
The plasma concentrations were used to calculate the AUC (area under the concentration/time curve) in accordance with the so-called trapezium formula.
The bioavailability is obtained from the AUC in accordance with the following formula: Bioavailability [%]=100×(AUC po)/AUC iv)[…]

Structure (SMILES): N#Cc1ccc2[nH]cc(CCCCN3CCN(c4ccc5oc(C(N)=O)cc5c4)CC3)c2c1 [EMD 68843, 5-{4-[4-(5-cyano-3-inolyl)butyl]-1-piperanzinyl}benzofuran-2-carboxamide, reference compound]
- serotonin level in the brain (5-HT concentration in the dialysate), FIG. 1 (cortical serotonin level; 1 mg/kg i.p.): comparable increase in the concentration of serotonin in the brain to EMD 135894

- bioavailability [1]: 10%
Structure (SMILES): N#Cc1ccc2[nH]cc(CCCCN3CCN(c4ccc5oc(=O)ccc5c4)CC3)c2c1 [EMD 135894, 3-(4-(4-(2-oxo-2H-1-benzopyran-6-yl)-1-piperazinyl)butyl)indole-5-carbonitrile, reference compound]

Structure (SMILES): N#Cc1ccc2[nH]cc(CCCCN3CCN(c4ccc5oc(=O)c(N)cc5c4)CC3)c2c1 [EMD 480246, 3-{4-[4-(3-Amino-2-oxo-2H-chromen-6-yl)piperazin-1-yl]butyl}-1H-indole-5-carbonitrile]
- serotonin level in the brain (5-HT concentration in the dialysate), FIG. 2 (cortical serotonin level; 0.3 mg/kg i.p.): even higher serotonin level than EMD 391987

- bioavailability [1]: ~20%
Structure (SMILES): CCOC(=O)Nc1cc2cc(N3CCN(CCCCc4c[nH]c5ccc(C#N)cc45)CC3)ccc2oc1=O [EMD 480247, Ethyl(6-{4-[4-(5-cyano-1H-indol-3-yl)butyl]piperazin-1-yl}-2-oxo-2H-chromen-3-yl)carbamate]
- serotonin level in the brain (5-HT concentration in the dialysate), FIG. 3 (cortical serotonin level; 0.3 or 1.0 mg/kg i.p. compared with vilazodone 1 mg/kg): clearly superior action to vilazodone
